The source of these data is patent EP1344776A1, “5- 2-hydroxy-3-[1-(3-trifluoromethylphenyl)-cyclopropyl]-propionylamino -phtalide and 6- 2-hydroxy-3-[1-(3-trifluoromethylphenyl)-cyclopropyl]-propionylamino -4-methyl-2,3-benzoxazin-1-one derivatives with progesterone receptor modulating activity for use in fertility control, hormone replacement …” (Schering Aktiengesellschaft, priority 2002, dated 2003).

As a reminder, the ED50 is the dose that gives a 50% effect, or the effect in half of the subjects.

For test [1], the system named is Pregnant rats (Wistar Han, SPF). Nature of the test: Pregnancy maintenance test in rat. It counts as in vivo. As to conditions: ovariectomized pregnant rats, with estrone. The source says:
In rats, castration induces termination of pregnancy. Progestins (combined with estrogens) are capable of maintaining pregnancy in castrated animals. However, the degree of pregnancy maintenance in castrated rats is optimal only in a defined dose range. Therefore, higher as well as lower doses generally induce a weaker effect. Accompanying treatment with defined doses of estrone (E1) increases the pregnancy maintaining effect of progestins.
Pregnant rats (Wistar Han, SPF) of 190 to 220 g (5 to 8 animals per dose) are ovariectomized on day 8 of pregnancy, 2 hours after the first substance administration. From day 8 to day 14, rats are daily treated with test progestin in combination with a standard dose of E1. One day later, animals are killed with carbon dioxide. For each animal, the number of living and dead fetuses is determined according to the heartbeat of the embryos. In case of empty uteri, the number of implantation sites is determined by means of staining with a 10 % ammonium sulfide solution.
S.c. (subcutaneous) application: The test progestin is dissolved in benzyl benzoate/castor oil (1+4 v/v), and the daily dose is administered in a volume of 1 ml/kg body weight.
P.o. (peroral) application: The test progestin is suspended in a carrier liquid (85 mg Myrj^R in 100 ml 0.9 % w/v NaCl solution), and the daily dose is administered in a volume of 2 ml/kg body weight.
I.p. (intraperitoneal) application: The test progestin is dissolved in propylene glycol and charged in miniature osmotic pumps (type 2001, 1.0 µl/h, 7 days), which are placed in the abdominal cavity of the rat.
The standard dose of estrone is 0.005 mg/kg body weight s.c. and is dissolved in benzyl benzoate/castor oil ([…]).
It is determined the pregnancy maintenance per animal [%], the pregnancy maintenance per dose (median of single values) and the ED50 (dose, at which pregnancy is maintained in 50 % of the animals; 100 % corresponds to control animals that are not ovariectomized).

The subject of a further test is female rats. Nature of the test: Ovulation inhibition test in rat. Format: in vivo. As to conditions: rat (Table 1-b); read-out: Ovulation Inhibition (rat) [ED50]. As to the method: Before the treatment is started, two […] cycles of female rats (weight: 190 to 210 g) were monitored. Only animals having a regular 4 day-cycle are used for the subsequent test. Starting in the metoestrus, the test compound is administered for 4 days (day 1 to 4) and the cycle is controlled thereafter.
For subcutaneous application, the test compounds are dissolved in benzyl benzoate/castor oil (1+9 v/v) and the daily dose is administered in a volume of 1 ml/kg body weight.
For peroral application, the test compounds are suspended in a carrier liquid (85 mg Myrj^R in 100 ml 0.9 % w/v NaCl solution) and the daily dose is administered in a volume of 2 ml/kg body weight.
On day 4, after the application of the test compound, those animals having estrus or metoestrus are ovariectomized under ether anesthesia on one side. Preparations of the tubes are prepared and they are investigated for ova by means of microscope. On day 5 all animals (intact and partly ovariectomized) are killed with carbon dioxide, the tubes are preserved and analyzed in the same way. It is then determined, as a percentage, in how many animals ovulation was inhibited.

Another test relates to rat mammary epithelium. Nature of the test: Bioassay on proliferating/differentiating effects in the rat mammary epithelium (whole mount staining). As to conditions: terminal end buds. Format: in vivo. As to the method:
The object of this test is to evaluate the effect of progestins on the development of the mammary gland, in particular on the formation of terminal end buds in the mammary gland in estrogen primed rats.
Premature female rats (Wistar Han, SPF) are ovariectomized at the age of 21 days, 4 to 6 days before treatment start. The animals are treated for 6 days with standard estrogen (estrone, 70 µg/kg) and the test progestin (application volume: 0.1 ml/50g body weight; vehicle: benzylbenzoate/castor oil (1+4 v/v); subcutaneous). Control groups are e.g.: vehicle, estrone without progestin, estradiol together with a known progestin, e.g. R5020 (promegestone). After the 6-day treatment the animals are killed with carbon dioxide.
For the whole mount staining, animals are shaved in the left abdominal inguinal mammary region, which is cut from the body together with the skin. For the histological/immunohistochemical analyses the right abdominal inguinal mammary gland is cut from the body together with the connective tissue adhered thereto and fixed in 3.7 % formalin in PBS (phosphate buffer saline; without Ca^2+/Mg^2+).
The preparations are fixed over night in alcohol-formalin according to the method of Tellyesniczky (see below). Then the mammary gland tissue and subcutis adhered thereto are stripped from the cutis and the preparations are again fixed over night. The further steps are as follows: ethanol 70 %: 1.5 hours; acetone: 3 × 1.5 hours; acetone: over night; isopropanol: 1.5 hours; ethanol 96 %: 2 hours; hematoxylin-iron: 3 hours; VE water: first rinse the preparations and then 2 × 0.5 hours; ethanol 70 %: over night; ethanol 80 %: 1.5 hours; ethanol 96 %: 1.5 hours; isopropanol: 1.5 hours. The preparations are then moved to petri dishes and left in toluene for approximately 1 hour, i.e. until they have stopped to swim up. Then the preparations are treated with cedarwood oil (Merck, no. 1.06965). The incubation times above are minimum times and can be extended. In particular, incubation in ethanol 70 % after fixation can be extended to at least 2.5 weeks.
Preparation of the solutions necessary for the whole mount staining: • a) Alcohol-formalin according to Tellyesniczky: formaldehyde 37%: 81.8 ml, ethanol 70 %: 1636 ml, glacial acetic acid (to be added shortly before use): 81.8 ml (total: 1800 ml). • b) Hematoxylin mother solution: Hematoxylin (Merck, no. 1.15938): 10 g, ethanol 96 %: 100 ml. The solution must stand for 48 hours at 37 °C before use. It can be kept in a dark place for almost unlimited time. • c) Hematoxylin-iron solution for use: hematoxylin mother solution (filtered): 15.2 ml, ethanol 96 %: 1374 ml, FeCl3 x 6 H2O (s. 4): 91.1 ml, 1 mol/l HCl: 220 ml (total: 1700 ml); adjustment to a pH of 1.25 with 2mol/l NaOH. • d) FeCl3 x 6 H2O solution: FeCl3 x 6 H2O (Merck, no. 1.03943): 1.07 g, VE water: 90.2 ml, HCl: 37 %: 0.92 ml (total: 91.1 ml).
By means of a 40-fold magnification, the terminal end buds near the nipple in direction of the tail are counted. The area to be investigated should be about 1.8 mm^2. For well-differentiated preparations this area may be reduced, with at least 250 buds to be counted. After counting, the number of end buds per 1 mm^2 is calculated. […]

In the next test the test system is hPR-B. Nature of the test: PR-B transcription assay (MTV-LUC reporter, SK-N-MC cells). It counts as cell-based, human. As to conditions: 10^-7 mol/l test compound relative to R5020 10^-7 mol/l, 24 hours, 0.1 µM. As to the method: (§1) The method for screening for PR isoform-specific progestins according to the present invention is carried out with first and second SK-N-MC cells stably transfected with a plasmid expressing the hPR-A (first cells) or the hPR-B (second cells) and the LUC reporter gene linked to the hormonally responsive MTV promoter.
The cells are cultured in Minimum Essential Medium with Earl's Salts (S-MEM, without L-glutamine; Gibco BRL, no. 21090-022), supplemented with 10 % fetal calf serum (FCS), penicillin 100U/streptomycin 100 µg/ml (Biochrom, no. A2213), L-glutamine 4 mmol/l (Gibco BRL, no. 25030-024), sodium pyruvate 1 mmol/l (Biochrom, no. L0473) and 1x non-essential amino acids (Biochrom, no. K0293) at a temperature of 37 °C and in an atmosphere of 5 % carbon dioxide.
(§2) For the transcription assay, the cells are seeded onto 96-well dishes (2x 10^4 cells/dish) and cultured in a medium as described above, with the exception that the FCS is replaced by a 3 % charcoal stripped FCS. 48 hours later, cells are contacted with prediluted test compounds. For determination of agonistic activity, cells are cultured in the presence of increasing concentrations (10^-6 to 10^-11 mol/l) of test progestins. As a positive control for reporter gene induction cells are treated with 10^-6 to 10^-11 mol/l R5020 (promegestone). As a negative control for reporter gene induction, cells are cultured in 1 % ethanol.
After incubation with test progestins for 24 hours, the medium is removed and cells are lysed with 20 µl of lysis buffer (Luciferase Assay System E 153A; Promega) and under agitation of the plate for 10 min. After addition of 30 µl of luciferase reagent (Luciferase Assay System E 151A + 152A; Promega) within 30 seconds per plate, the activity of the luciferase reporter gene product is determined in the cell lysates by means of a Microlite ML 3000 microtiter plate luminometer (Dynatech) in cycle mode.
(§3) Evaluation of the response gives the efficacy [%], and evaluation of the EC50 values gives the potency [nM]. Calculation of the agonistic activity is conducted as follows:
(§4) The LUC activity [%] for the measured data points is calculated as follows: relative LUC activity [%] = 100 x((response 10)^-6 (to 10)^-11 mol/l test compound - CO)/(CI - CO) [formula] wherein CI = 100 % stimulation (R5020, 10^-7 mol/l) and CO = 0 % stimulation (ethanol, 1 %).
(§5) Thus, the efficacy [%] is calculated according to: efficacy [%] = 100 x((response 10)^-7 mol/l test compound - CO)/(CI - CO) [formula]
(§6) The potency [nM], i.e. the EC50, is determined graphically.

Another test deals with hPR-A. As to the kind of experiment: PR-A transcription assay (MTV-LUC reporter, SK-N-MC cells). Format: cell-based, human. As to conditions: 10^-7 mol/l test compound relative to R5020 10^-7 mol/l, 24 hours, 0.1 µM. As to the method: as §1, §2, §3, §4, §5, §6

Each structure is given as a SMILES string.

With `CCC(=O)[C@@]1(C)CC[C@H]2[C@@H]3CCC4=CC(=O)CCC4=C3CC[C@@]21C` [R5020, promegestone, reference compound], the “Maintenance of pregnancy (rat) [ED50]” value in test [1] worked out at 0.1 mg/kg. The ED50 with female rats came out at 0.06 mg/kg. Besides, the “Mammary gland, whole mount staining (rat) [equi-efficient dose]” value with rat mammary epithelium (dose pair with 0.1 mg/kg R5020, independent test) is reported as 0.1 mg/kg; in the test with rat mammary epithelium (dose pair with 0.3 mg/kg R5020, independent tests), 0.3 mg/kg.

Consider `Cc1noc(=O)c2ccc(NC(=O)C(C)(O)CC3(c4cccc(C(F)(F)F)c4)CC3)cc12` (single isomer, unassigned; (+)) [((+)-3), (+)-6-{2-hydroxy-3-[1-(3-trifluoromethylphenyl)-cyclopropyl]-2-methyl-propionylamino}-4-methyl-2,3-benzoxazin-1-one], for which the PR-B agonism efficacy in the test on hPR-B was 71%. The same molecule showed a PR-A agonism efficacy in the test with hPR-A of 94%.

In the test with hPR-B, `Cc1noc(=O)c2ccc(NC(=O)C(O)(CC3(c4cccc(C(F)(F)F)c4F)CC3)C(F)(F)F)cc12` (single isomer, unassigned; (+)) [((+)-2), (+)-6-{2-hydroxy-3-[1-(2-fluoro-3-trifluoromethylphenyl)-cyclopropyl]-2-trifluoromethyl-propionylamino}-4-methyl-2,3-benzoxazin-1-one] came in with a PR-B agonism efficacy of 67.5%. The same molecule came in with a PR-A agonism efficacy in the test with hPR-A of 99.2%.

In the case of `O=C1OCc2cc(NC(=O)C(O)(CC3(c4cccc(C(F)(F)F)c4F)CC3)C(F)(F)F)ccc21` (single isomer, unassigned; (+)) [((+)-4), (+)-5-{2-hydroxy-3-[1-(2-fluoro-3-trifluoromethylphenyl)-cyclopropyl]-2-trifluoromethyl-propionylamino}-phthalide], the PR-B agonism efficacy in the test on hPR-B came to 82%. In the test on hPR-A, this molecule displayed a PR-A agonism efficacy of 100%.
